Test results reported in US20240074473A1, “METHOD FOR INDUCING HYPERTROPHIC MUSCLE FIBERS FOR INDUSTRIAL MEAT PRODUCTION” (Yeda Research and Development Co. Ltd., priority 2021, published 2024).
Like-named read-outs stand apart in the source and are kept apart here.

Key:
[1] = test system: primary chicken myoblasts; assay: Fusion index of primary chicken myoblasts (MyHC immunostaining); assay type: cell-based; conditions: primary chicken myoblasts; for Fusion index: proliferation medium; for Fusion index / Fusion index in combination with ERK inhibitor vs ERK inhibitor alone: 48 hours; for Fusion index in combination with ERK inhibitor vs ERK inhibitor alone: proliferation media; for Fusion: 48 hours post treatment
Protocol: Chicken primary derived myoblasts were used as a model to evaluate the efficiency of SCH772984 as the ERKi, compared to conventional differentiation medium (DM) for the purpose of producing muscle (meat) in tissue culture conditions. Chicken myoblasts were isolated from chicken embryos and expanded in proliferation medium. When sufficient cell numbers were acquired, cells were seeded on tissue culture plates and allowed to adhere for 24 hours. Then medium was changed to either PM supplemented with ERKi or DM. At 24-hours post treatment, the cells that received ERKi were replenished with fresh PM (without the addition of more ERKi), and DM treated cells were replenished with fresh DM. Media was replaced daily over a period of 72 hours.
Evaluation of muscle fiber formation was achieved by fixing the cells and staining for expression of Myosin Heavy Chain (FIG. 9A). […] Yet, treatment with conventional DM only began to form fibers beginning at 72-hours post treatment. A fusion index was quantified at 72 hours post treatment (FIG. 9B), in which the percentage of total nuclei present in a myotube (MyHC positive cell with 2 or more nuclei).
Primary chicken myoblast isolation and treatment: chicken myoblasts were isolated from broiler chicken embryos at day 18 from breast and leg muscles by using Trypsin B. Following tissue dissociation, the cell suspension was grown for 3-4 days on 10% Matrigel coated plates. At the first passage, the cells were lifted and pre-plated twice for 30 minutes to enrich for myoblasts and reduce the number of fibroblasts. Then cells were seeded at 8,000/well of optical-96 well plates in proliferation medium. 24 hours after plating, media was aspirated and replaced with the indicated treatment conditions in proliferation media or differentiation media (as indicated). After 24 hours with treatment, the media was aspirated and all wells were replenished with fresh proliferation media or differentiation media without any treatment. This was repeated daily. Cells were fixed at 48 hours after treatment. Compounds were purchased from Cayman Chemicals.
Immunofluorescent staining: Cells were fixed with ice cold 4% PFA in PBS for 10 minutes, permeabilized with 0.5% Triton X-100 in PBS for 6 minutes, and blocked in PBS with 0.025% tween, 10% normal horse serum and 10% normal goat serum for 1 hour at room temperature. Primary antibody incubation was done in blocking buffer overnight at 4 degrees, with the following antibodies: Myosin Heavy Chain (MyHC, MF20, DSHB hybridoma supernatant 1:10, alpha-actinin (SIGMA A7811). Cells were washed 3 times in PBS with 0.025% tween and then incubated with appropriate secondary antibodies in PBS 1 hour. Nuclei were labeled with DAPI (SIGMA D9542, 5 ug/ml). All fusion indexes and imaging analysis were performed on at least 1000 per technical repeat.

[2] = Risk categorization of cell culture media ingredients
Excerpt: Category 1: These cell culture media components are food ingredients/additives that are GRAS or permitted by federal regulation without limitation on use. Exemplary compounds in this category include innocuous ingredients such as sugars, pH buffers, water soluble vitamins, and common antioxidants such as tocopherols.
Category 2: These cell culture media components are common dietary nutrients and are anticipated to have GRAS status for food use or be permitted by regulation for addition to food. Examples of such compounds include most of the inorganic salts and macronutrients that are present within the cell culture media. […] Majority of nutrients present within the poultry cell-based meat may be readily measured using common validated methods for food composition testing. Batch analyses of multiple lots of the finished product may be obtained to validate the above assumptions. In some instances, consideration of established safe levels (e.g., ADI, UL) derived from a relevant authoritative body (e.g., U.S. FDA, EFSA, JECFA, FSANZ, U.S. EPA) may be leveraged to support safety. If comparisons of anticipated dietary intakes relative to an authoritative reference intake value is used, consideration of additive intakes from all dietary sources may be considered. In the absence of an authoritative reference intake value, published NOAELs from animal toxicology studies may be used to evaluate safety using standard scientific procedures for food safety evaluation. A margin of exposure (MoE) of 100-fold or greater between the NOAEL and estimated dietary intakes from food exposures is typically considered adequate to support safety. in situations where the MoE is <100-fold, additional measures for further reduction of the media component may be necessary, or further characterization of intraspecies/interspecies differences in metabolism may be necessary. These situations also require careful consideration of the regulatory status on a case-by basis (e.g., premarket approval as a food additive or GRAS evaluation required).
For example, situations where the compound is not detectable in finished product or is present at equivalent levels in comparator foods, compounds that are thermo-labile and will be digested during cooking, and/or compounds that are expected to be digested to innocuous compounds following ingestion. Examples of compounds meeting the aforementioned conditions would include recombinant growth factors and serum components. For Category 3 substances a final consideration in the safety assessment process may involve hazard characterization of the potential for a substance to produce toxic biological effects outside of the endpoints measured in a sub-chronic rat toxicity study. Substances with biological activity may require additional hazard characterization related to reproductive and developmental toxicity, or immunotoxicity. Considerations for allergenicity, biological effects in humans (e.g., effects on blood pressure), and synergistic effects with other media components also may be evaluated. […] Examples of category 3 components include recombinant proteins and animal serum.

[3] = human dietary intake, as iron; cited from earlier work
[4] = Maximum estimated dietary exposure to media ingredients per 100 g serving; conditions: assumption of complete transfer of media components to the finished product on a wt/wt basis
[5] = SCH772984 1 uM plus 9-cis RA 200 nM, AM80 200 nM, AM580 100 nM, CH55 200 nM, TTNPB 200 nM, Fenretinide 200 nM
[6] = cell culture media ingredient used during meat production
[7] = SCH772984 1 uM plus Caffeine 2 mM or Suramin 10 μM

CCOC(=O)CCCCCCCCCCCN(C)C(=O)CO[C@H](C)[C@@H](C)OCC(=O)N(C)CCCCCCCCCCCC(=O)OCC [calcium ionophore I]
Fusion index ([1]; ionophore 2 uM plus ERKi 1 uM): 89%

C/C(=C\c1ccc(C(=O)O)cc1)c1ccc2c(c1)C(C)(C)CCC2(C)C [TTNPB]
Fusion index in combination with ERK inhibitor vs ERK inhibitor alone [1, 5]: significantly increased the fusion index

C[C@@H](O)[C@H](N)C(=O)O [L-THREONINE]
Risk Assessment Category [2]: 2

O=C[C@H](O)[C@@H](O)[C@H](O)[C@H](O)CO [D-GLUCOSE]
Risk Assessment Category [2]: 1

CC1(C)CCC(C)(C)c2cc(NC(=O)c3ccc(C(=O)O)cc3)ccc21 [AM80]
Fusion index in combination with ERK inhibitor vs ERK inhibitor alone [1, 5]: significantly increased the fusion index

N[C@@H](Cc1c[nH]c2ccccc12)C(=O)O [L-TRYPTOPHAN]
Risk Assessment Category [2]: 2

CC[C@H](C)[C@H](N)C(=O)O [L-ISOLEUCINE]
Risk Assessment Category [2]: 2

PDGF-BB (PLATELET DERIVED GROWTH FACTOR-BB): growth factor of cell culture media
Risk Assessment Category [2]: 3

N#CC(=C(/N)Sc1ccccc1N)/C(C#N)=C(\N)Sc1ccccc1N [U0126]
Fusion ([1]; Differentiation media, 1 uM): 29% | Fusion ([1]; Differentiation media, 10 uM): 47% | Fusion ([1]; Proliferation media, 1 uM): 16% | Fusion ([1]; Proliferation media, 10 uM): 7%

CC(C)(C)c1cc(C(=O)/C=C/c2ccc(C(=O)O)cc2)cc(C(C)(C)C)c1 [CH55]
Fusion index in combination with ERK inhibitor vs ERK inhibitor alone [1, 5]: significantly increased the fusion index

FERRIC CITRATE
Safe Reference Level for Human Dietary Intake: Iron UL [3]: Iron UL = 40 to 45 mg

O.O.O.O.O.O.O.O.O.O=[Si]([O-])[O-].[Na+].[Na+] [SODIUM METASILICATE-9H2O]
Risk Assessment Category [2]: 1 | Maximum Estimated Exposure per 100 g serving [4]: 1.6 mg

CNc1ccc2oc(C[C@H]3O[C@@]4(CC[C@H]3C)O[C@H]([C@H](C)C(=O)c3ccc[nH]3)[C@H](C)C[C@H]4C)nc2c1C(=O)O [calcimycin]
Fusion index ([1]; ionophore 1 uM plus ERKi 1 uM): 94%

C[N+](C)(C)CCO.[Cl-] [CHOLINE CHLORIDE]
Risk Assessment Category [2]: 1 | Maximum Estimated Exposure per 100 g serving [4]: 52 mg

Cl.N[C@@H](Cc1cnc[nH]1)C(=O)O.O [L-HISTIDINE-HCL-H20]
Risk Assessment Category [2, 6]: 2

O.O=P([O-])(O)O.[Na+] [SODIUM PHOSPHATE MONOBASIC H20]
Risk Assessment Category [2, 6]: 1 | Maximum Estimated Exposure per 100 g serving [4]: 1500 mg

CC(C)[C@H](N)C(=O)O [L-VALINE]
Risk Assessment Category [2]: 2

CC1=C(/C=C/C(C)=C\C=C\C(C)=C\C(=O)O)C(C)(C)CCC1 [9-cis retinoic acid]
Fusion index in combination with ERK inhibitor vs ERK inhibitor alone [1, 5]: significantly increased the fusion index

Nc1nc2ncc(CNc3ccc(C(=O)N[C@@H](CCC(=O)O)C(=O)O)cc3)nc2c(=O)[nH]1 [FOLIC ACID]
Risk Assessment Category [2]: 1 | Maximum Estimated Exposure per 100 g serving [4]: 60 mg

Cc1ncc(CO)c(C=O)c1O.Cl [PYRIDOXAL-HCL]
Risk Assessment Category [2]: 1

Cc1ccc(C(=O)Nc2ccc(S(=O)(=O)O)c3cc(S(=O)(=O)O)cc(S(=O)(=O)O)c23)cc1NC(=O)c1cccc(NC(=O)Nc2cccc(C(=O)Nc3cc(C(=O)Nc4ccc(S(=O)(=O)O)c5cc(S(=O)(=O)O)cc(S(=O)(=O)O)c45)ccc3C)c2)c1 [Suramin]
Fusion index in combination with ERK inhibitor vs ERK inhibitor alone [1, 7]: significantly increased the fusion index

NC(=O)C[C@H](N)C(=O)O.O [L-ASPARAGINE-H20]
Risk Assessment Category [2]: 2

CSCC[C@H](N)C(=O)O [L-METHIONINE]
Risk Assessment Category [2]: 2

O[C@H]1[C@H](O)[C@@H](O)[C@H](O)[C@@H](O)[C@H]1O [MYO-INOSITOL]
Risk Assessment Category [2]: 1 | Maximum Estimated Exposure per 100 g serving [4]: 430 mg

BOVINE SERUM ALBUMIN: animal component of cell culture media
Risk Assessment Category [2]: 3

N[C@@H](Cc1ccccc1)C(=O)O [L-PHENYLALANINE]
Risk Assessment Category [2, 6]: 2

C[C@H](CCC(=O)O)C[C@H](C)C[C@H](C)C(=O)/C=C(\O)[C@H](C)C[C@H](C)C/C=C/[C@@H](C)[C@@H](O)[C@@H](C)[C@@H](O)C[C@@H]1CC[C@@](C)([C@H]2CC[C@@](C)([C@@H](C)O)O2)O1 [ionomycin]
Fusion index ([1]; ionophore 2 uM plus ERKi 1 uM): 89%

Cl.NCCCC[C@H](N)C(=O)O [L-LYSINE-HCL]
Risk Assessment Category [2, 6]: 2

IGF-1 (INSULIN-LIKE GROWTH FACTOR 1): growth factor of cell culture media
Risk Assessment Category [2]: 3

CC1(C)CCC(C)(C)c2cc(C(=O)Nc3ccc(C(=O)O)cc3)ccc21 [AM580]
Fusion index in combination with ERK inhibitor vs ERK inhibitor alone [1, 5]: significantly increased the fusion index

N[C@@H](Cc1ccc([O-])cc1)C(=O)[O-].O.O.[Na+].[Na+] [L-TYROSINE-2NA-2H20]
Risk Assessment Category [2, 6]: 2

FGF2 (FIBROBLAST GROWTH FACTOR-BASIC): growth factor of cell culture media
Risk Assessment Category [2]: 3

Cl.Cl.N[C@@H](CSSC[C@H](N)C(=O)O)C(=O)O [L-CYSTINE 2HCL]
Risk Assessment Category [2]: 2

Cc1ncc(CO)c(CO)c1O.Cl [PYRIDOXINE-HCL]
Risk Assessment Category [2, 6]: 1 | Maximum Estimated Exposure per 100 g serving [4]: 25 mg

CC1=C(/C=C/C(C)=C/C=C/C(C)=C/C(=O)Nc2ccc(O)cc2)C(C)(C)CCC1 [Fenretinide]
Fusion index in combination with ERK inhibitor vs ERK inhibitor alone [1, 5]: significantly increased the fusion index

Cn1c(=O)c2c(ncn2C)n(C)c1=O [Caffeine]
Fusion index in combination with ERK inhibitor vs ERK inhibitor alone [1, 7]: significantly increased the fusion index

C[C@H](N)C(=O)O [L-ALANINE]
Risk Assessment Category [2]: 2

N[C@@H](CCC(=O)N[C@@H](CS)C(=O)NCC(=O)O)C(=O)O [L-GLUTATHIONE]
Risk Assessment Category [2]: 2 | Maximum Estimated Exposure per 100 g serving [4]: 36 mg

O=C1O[C@H]([C@@H](O)CO)C(O)=C1O [ASCORBIC ACID]
Risk Assessment Category [2]: 1 | Maximum Estimated Exposure per 100 g serving [4]: 2000 mg

N[C@@H](CO)C(=O)O [L-SERINE]
Risk Assessment Category [2]: 2

Cl.N[C@@H](CS)C(=O)O.O [L-CYSTEINE HCL H20]
Risk Assessment Category [2, 6]: 2

O=C(O)CCCC[C@@H]1SC[C@@H]2NC(=O)N[C@@H]21 [D-BIOTIN]
Risk Assessment Category [2]: 1 | Maximum Estimated Exposure per 100 g serving [4]: 4 mg
